Common to all, as to format: cell-based
Experiment [1] relates to human hepatoma cells (HepG2). Kind of experiment: MTT tumor cell proliferation inhibition test, HepG2. The note with it: read-out: Half Inhibitory Concentration IC50, HepG2. How it is done: (§1) The gossypol eflornithine Schiff base compound was subjected to tumor cell proliferation inhibition test, and conventional MTT method was used.
(§2) Cell lines: human hepatoma cells (HepG2), human lung cancer cells (A-549), human gastric cancer cells (SGC-7901). The culture medium was DMEM+15% NBS+double antibody.
(§3) Sample solution preparation: after dissolving with DMSO (Merck), PBS (−) was added to obtain 100 μmol/L solution or homogeneous suspension. The solution was diluted with PBS (−) in DMSO to a final concentration of 0.1, 1, 10, 20, 40, 60, 80, 100 μmol/L.
(§4) Gossypol and eflornithine used as control solution, prepared under the same condition.
(§5) Cell culture: adherent growth Tumor cells were cultured in 1640 medium containing 10% inactivated neonatal bovine serum and penicillin, streptomycin (1 million U/L), placed in carbon dioxide incubator at 37° C., 5% CO2, and saturated humidity. Cells were treated serially passaged 2-3 times. The first culture was washed with PBS 2 times, and digested with trypsin. Fresh culture medium was added evenly, cells were adjusted to an appropriate concentration and transferred into a new culture flask. […]
(§6) Experimental Principle: Living cells mitochondria in the dehydrogenase can reduce yellow MTT to water-insoluble blue-violet product MT (MTT formazan), deposited in the cells. […] DMSO can dissolve blue violet crystals, and the color depth is proportional to the amount contained, so the absorbance measured by the microplate reader can reflect the cell viability.
(§7) Methods: The exponential phase cells were digested and counted and seeded in 96-well plates at a density of 2×10^4/mL at 100 μl per well. […] After 48 hours, the supernatant was discarded, and 100 μl of MTT ((2-(4,5-dimethyl-2-thiazolyl)-3,5-diphenyl-2H-[…]) (1 mg/mL) was added to each well. After another 4 hours, the supernatant was discarded, and 100 μl of DMSO was added to each well. After mixing, the absorbance was measured at 570 nm using a microplate reader. An IC50 calculation software was used to determine the half inhibitory concentration (IC50).

Experiment [2] has as its system human lung cancer cells (A-549). Description: MTT tumor cell proliferation inhibition test, A-549. Particulars: read-out: Half Inhibitory Concentration IC50, A549. How it is done: as §1, §2, §3, §4, §5, §6, §7
The test system of experiment [3] is human gastric cancer cells (SGC-7901). Kind of experiment: MTT tumor cell proliferation inhibition test, SGC-7901. The note with it: for IC50: Homo sapiens, read-out: Half Inhibitory Concentration IC50, SGC-7901. How it is done: as §1, §2, §3, §4
Cell culture: adherent growth Tumor cells were cultured in 1640 medium containing 10% inactivated neonatal bovine serum and penicillin, streptomycin (1 million U/L), placed in carbon dioxide incubator at 37° C., 5% CO2, and saturated humidity. Cells were treated serially passaged 2-3 times. The first culture was washed with PBS 2 times, and digested with trypsin. Fresh culture medium was added evenly, cells were adjusted to an appropriate concentration and transferred into a new culture flask. Cell in an exponential phase were chosen for the tests.
MTT Assay for Cell Viability and IC50 Determination:
Experimental Principle: Living cells mitochondria in the dehydrogenase can reduce yellow MTT to water-insoluble blue-violet product MT (MTT formazan), deposited in the cells. The amount of production is proportional to the number of living cells. […] DMSO can dissolve blue violet crystals, and the color depth is proportional to the amount contained, so the absorbance measured by the microplate reader can reflect the cell viability.
Methods: The exponential phase cells were digested and counted and seeded in 96-well plates at a density of 2×10^4/mL at 100 μl per well. After 24 hours of incubation, the cells to be tested were treated with 0.1, 1, 10, 20, 40, 60, 80, 100 μmol/L of the compounds. Each experimental group had 5 wells in each concentration, and the culture medium containing 0.4% DMSO was used as control. After 48 hours, the supernatant was discarded, and 100 μl of MTT ((2-(4,5-dimethyl-2-thiazolyl)-3,5-diphenyl-2H-[…]) (1 mg/mL) was added to each well. After another 4 hours, the supernatant was discarded, and 100 μl of DMSO was added to each well. After mixing, the absorbance was measured at 570 nm using a microplate reader. An IC50 calculation software was used to determine the half inhibitory concentration (IC50).

[4] abbreviates: HepG2 cells, MTT, 48 hours treatment.
Where [5] appears, read: A549 cells, MTT, 48 hours treatment.
[6] abbreviates: SGC-7901 cells, MTT, 48 hours treatment.

Read-outs that look alike come from different tables or passages of the source.

On to `NCCCC(N)(C(=O)O)C(F)F` (stereo not shown) [Eflornithine], for which the IC50 in experiment [1] (setting [4]), in experiment [2] (setting [5]) and in experiment [3] (setting [6]) was more than 100 µM throughout.
For `Cc1cc2c(C(C)C)c(O)c(O)c(C=O)c2c(O)c1-c1c(C)cc2c(C(C)C)c(O)c(O)c(C=O)c2c1O` [Gossypol], the IC50 in experiment [1] (HepG2, 48 h) stood at 9.55 ± 0.41 µM; in experiment [2] (A549, 48 h), 13 ± 0.32 µM; in experiment [3] (SGC-7901, 48 h) it was 19.8 ± 0.66 µM.
On to `Cc1cc2c(C(C)C)c(O)c(O)c(/C=N\CCCC(N)(C(=O)O)C(F)F)c2c(O)c1-c1c(C)cc2c(C(C)C)c(O)c(O)c(/C=N\CCCC(N)(C(=O)O)C(F)F)c2c1O` (stereo not shown) [gossypol eflornithine Schiff base compound], for which the IC50 in experiment [1] (setting [4]) was found to be 20.1 ± 0.57 µM; in experiment [2] (setting [5]), 11.6 ± 0.2 µM; in experiment [3] (setting [6]), 11.1 ± 0.34 µM. In addition, in experiment [3] (SGC-7901 cells, MTT, comparison with gossypol), the “antitumor activity against SGC-7901 cell lines compared with gossypol” value is on record as “better antitumor activity against SGC-7901 cell lines than gossypol”.

The values above are taken from patent US10336689B1, “Gossypol eflornithine Schiff base compound with antitumor activities and a method of preparing the same” (SHAANXI UNIVERSITY OF SCIENCE AND TECHNOLOGY, priority 2019, dated 2019).
